This note sets out measurements from patent US20230140290A1, “SALICYLAMIDE DERIVATIVES AND RELATED METHODS OF MAKING” (THE BOARD OF REGENTS OF THE UNIVERSITY OF TEXAS SY, priority 2020, published 2023).

As a reminder, the EC50 is the concentration at which the effect is half-maximal. The inhibition is the drop in the measured response relative to a control, in per cent. One may read the IC50 as the midpoint of a concentration-inhibition curve.

Where a name gives a salt, the structure may show the parent alone.

The subject of this assay is HAdV5-GFP. Put plainly: Plaque assay (inhibition of HAdV plaque formation). Type of assay: cell-based, HAdV-5. As to conditions: for EC50: read-out: EC50 (plaque assay); for inhibition at 10 µM: read-out: Plaque Assay (%) Inhibition (10 μM); for IC50: read-out: Plaque Assay IC50 (μM), HAdV5-GFP, low MOI, 293β5 cell line. On the procedure: Plaque Assay. […] When cells reached 80-90% confluency, they were infected with HAdV5-GFP (0.06 vp/cell) and rocked for 2 h at 37° C. After the incubation the inoculum was removed, and the cells were washed once with PBS.
Plaque Assay. Compounds were tested using low MOI infections (0.06 vp/cell) and at concentrations of 10 μM and in a dose-response assay ranging from 10 to 0.3 μM in a plaque assay. […] When cells reached 80-90% confluency, they were infected with HAdV5-GFP (0.06 vp/cell) and rocked for 2 h at 37° C. After the incubation the inoculum was removed, and the cells were washed once with PBS. […] The mixture also contained the compounds in concentrations ranging from 10 to 0.3 μM.

Turning to `O=C(NCCN1CCOCC1)c1cc(Cl)ccc1O` [Compound 168, 5-Chloro-2-hydroxy-N-(2-morpholinoethyl)benzamide], the EC50 was 3730 nM and the inhibition at 10 µM was determined as 0%.

Consider `O=C(Cc1cc(Cl)ccc1O)Nc1ccc([N+](=O)[O-])cc1Cl` [Compound 54, 2-(5-Chloro-2-hydroxyphenyl)-N-(2-chloro-4-nitrophenyl)acetamide], for which the inhibition at 10 µM worked out at 0%.

With `CN1CCC(Oc2ccc(Cl)cc2C(=O)Nc2ccc(NC3CCCC3)cc2Cl)CC1` [Compound 139, 5-Chloro-N-(2-chloro-4-(cyclopentylamino)phenyl)-2-((1-methylpiperidin-4-yl)oxy)benzamide], the inhibition at 10 µM came to 0%.

For the molecule `O=C(NC1CCOCC1)c1cc(Cl)ccc1O` [Compound 159, 5-Chloro-2-hydroxy-N-(tetrahydro-2H-pyran-4-yl)benzamide], the inhibition at 10 µM stood at 0%.

Regarding `CC(=O)Nc1ccc(NC(=O)c2cc(Cl)ccc2O)c(Cl)c1` [Compound 77, N-(4-Acetylamino-2-chlorophenyl)-5-chloro-2-hydroxybenzamide], the inhibition at 10 µM turned out to be 0%.

In the case of `O=C(Nc1ccc(NCC2CCNCC2)cc1Cl)c1cc(Cl)ccc1O` [Compound 127, 5-Chloro-N-(2-chloro-4-((piperidin-4-ylmethyl)amino)phenyl)-2-hydroxybenzamide], the inhibition at 10 µM was 20.6 ± 10.3%.

For `O=C(Nc1ccc(NC2CCNCC2)cc1Cl)c1cc(Cl)ccc1O` [Compound 125, 5-Chloro-N-(2-chloro-4-(piperidin-4-ylamino)phenyl)-2-hydroxybenzamide hydrochloride], the inhibition at 10 µM is 39.7 ± 13.5%.

As for `O=C(NC1CCCCCC1)c1cc(Cl)ccc1O` [Compound 158, 5-Chloro-N-cycloheptyl-2-hydroxybenzamide], the EC50 amounted to 4700 nM.

Regarding `O=C(Nc1ccc([N+](=O)[O-])c(Cl)c1)c1cc(Cl)ccc1O` [Compound 10, 5-Chloro-N-(3-chloro-4-nitrophenyl)-2-hydroxybenzamide], the inhibition at 10 µM came out at 100% and the IC50 was determined as 1 µM.

`CN1CCC(CNc2ccc(NC(=O)c3cc(Cl)ccc3O)c(Cl)c2)CC1` [Compound 128, 5-Chloro-N-(2-chloro-4-(((1-methylpiperidin-4-yl)methyl)amino)phenyl)-2-hydroxybenzamide]: the inhibition at 10 µM was determined as 0%.

As for `CS(=O)(=O)Nc1ccc(Cl)cc1C(=O)N[C@@H](Cc1ccccc1)C(=O)Nc1ccc([N+](=O)[O-])cc1Cl` [Compound 71, (S)-5-Chloro-N-(1-((2-chloro-4-nitrophenyl)amino)-1-oxo-3-phenylpropan-2-yl)-2-(methylsulfonamido)benzamide], the inhibition at 10 µM stood at 88.9 ± 15.7%.

For the molecule `O=C(NCc1cccc(Cl)c1)c1cc(Cl)ccc1O` [Compound 39, 5-Chloro-N-(3-chlorobenzyl)-2-hydroxybenzamide], the inhibition at 10 µM came out at 72 ± 1.5%.

As for `CN1CCN(CCNC(=O)c2cc(Cl)ccc2O)CC1` [Compound 167, 5-Chloro-2-hydroxy-N-(2-(4-methylpiperazin-1-yl)ethyl)benzamide], the inhibition at 10 µM is 0%.

`CSCC[C@H](NC(=O)c1cc(Cl)ccc1O)C(=O)Nc1ccc([N+](=O)[O-])cc1Cl` [Compound 63, (S)-5-Chloro-N-(1-((2-chloro-4-nitrophenyl)amino)-4-(methylthio)-1-oxobutan-2-yl)-2-hydroxybenzamide]: the inhibition at 10 µM was determined as 34.8 ± 16.9%.

Regarding `C[C@H](NC(=O)c1cc(Cl)ccc1O)C1CCCCC1` [Compound 162, (S)-5-chloro-N-(1-cyclohexylethyl)-2-hydroxybenzamide], the EC50 was found to be 510 nM and the inhibition at 10 µM turned out to be 100%.

As for `O=C(NCCC1CCCCC1)c1cc(Cl)ccc1O` [Compound 165, 5-Chloro-N-(2-cyclohexylethyl)-2-hydroxybenzamide], the EC50 is 1000 nM and the IC50 turned out to be 1 ± 0.1 µM.

Consider `O=C(NCc1ccc(F)c(F)c1)c1cc(Cl)ccc1O` [Compound 34, 5-Chloro-N-(3,4-difluorobenzyl)-2-hydroxybenzamide], for which the inhibition at 10 µM came to 37.2 ± 23.4%.

In the case of `O=C(NCc1ccccc1)c1cc(Cl)ccc1O` [Compound 45, N-Benzyl-5-chloro-2-hydroxybenzamide], the inhibition at 10 µM stood at 12.7 ± 2.9%.

Turning to `O=C(NCC1CCOCC1)c1cc(Cl)ccc1O` [Compound 163, 5-Chloro-2-hydroxy-N-((tetrahydro-2H-pyran-4-yl)methyl)benzamide], the inhibition at 10 µM was found to be 0%.

`COc1ccc([C@@H](C)NC(=O)c2cc(Cl)ccc2O)cc1` [Compound 50, (R)-5-Chloro-2-hydroxy-N-(1-(4-methoxyphenyl)ethyl)benzamide]: the inhibition at 10 µM amounted to 33.5 ± 14.8%.

Regarding `O=C(Cc1cc(Cl)ccc1O)Nc1ccc(NC2CCCC2)cc1Cl` [Compound 146, 2-(5-Chloro-2-hydroxyphenyl)-N-(2-chloro-4-(cyclopentylamino)phenyl)acetamide], the inhibition at 10 µM came to 85.8 ± 5.8%.

On to `O=C(Nc1ccc(NC2CCCC2)cc1Cl)c1cccc(Cl)c1` [Compound 137, 3-Chloro-N-(2-chloro-4-(cyclopentylamino)phenyl)benzamide], for which the inhibition at 10 µM was found to be 82.9%.

For `O=C(NCc1ccc(F)cc1F)c1cc(Cl)ccc1O` [Compound 33, 5-Chloro-N-(2,4-difluorobenzyl)-2-hydroxybenzamide], the inhibition at 10 µM was found to be 74.7 ± 6.9%.

On to `Nc1ccc(NC(=O)c2cc(Cl)ccc2O)c(Cl)c1` [Compound 76, N-(4-Amino-2-chlorophenyl)-5-chloro-2-hydroxybenzamide], for which the inhibition at 10 µM is 0%.

For the molecule `O=C(Nc1ccc(NC2CCCC2)cc1Cl)c1ccccc1O` [Compound 135, N-(2-Chloro-4-(cyclopentylamino)phenyl)-2-hydroxybenzamide], the inhibition at 10 µM was found to be 77.5%.

Regarding `CC(C)C[C@H](NC(=O)c1cc(Cl)ccc1O)C(=O)Nc1ccc([N+](=O)[O-])cc1Cl` [Compound 61, (S)-5-Chloro-N-(1-((2-chloro-4-nitrophenyl)amino)-4-methyl-1-oxopentan-2-yl)-2-hydroxybenzamide], the inhibition at 10 µM came to 17.4 ± 12.3%.

In the case of `CC(C)[C@H](NC(=O)c1cc(Cl)ccc1O)C(=O)Nc1ccc(C(F)(F)F)cc1Cl` [Compound 66, (S)-5-Chloro-N-(1-((2-chloro-4-(trifluoromethyl)phenyl)amino)-3-methyl-1-oxobutan-2-yl)-2-hydroxybenzamide], the inhibition at 10 µM was 24.8 ± 12.3%.

In the case of `CC(=O)N1CCN(C(=O)c2cc(Cl)ccc2O)CC1` [Compound 172, 1-(4-(5-Chloro-2-hydroxybenzoyl)piperazin-1-yl)ethanone], the inhibition at 10 µM amounted to 0%.

In the case of `NCCNc1ccc(NC(=O)c2cc(Cl)ccc2O)c(Cl)c1` [Compound 123, N-(4-((2-Aminoethyl)amino)-2-chlorophenyl)-5-chloro-2-hydroxybenzamide hydrochloride], the inhibition at 10 µM was 19.4 ± 12.2%.

In the case of `COc1ccc(Cl)cc1C(=O)Nc1ccc(NC2CCCC2)cc1Cl` [Compound 138, 5-Chloro-N-(2-chloro-4-(cyclopentylamino)phenyl)-2-methoxybenzamide], the inhibition at 10 µM was found to be 78.9%.

Regarding `O=C(c1cc(Cl)ccc1O)N1CCCCC1` [Compound 171], the “Plaque Assay (%) Inhibition (10 μM)” value (HAdV5-GFP, 10 μM, low MOI, 293β5 cell line) is 0.00 ± 0.00%.

Turning to `CN1CCN(C(=O)c2cc(Cl)ccc2O)CC1` [Compound 173, (5-Chloro-2-hydroxyphenyl)(4-methylpiperazin-1-yl)methanone], the inhibition at 10 µM amounted to 0%.
